Test results reported in patent US8048927B2 (Besins Healthcare Luxembourg, priority 2004, dated 2011).

Experiments:
[1] = pharmacokinetics of 4-hydroxy tamoxifen gel in healthy premenopausal women (Example 3); format: in vivo, human; details: for Plasma concentration of 4-hydroxy tamoxifen, Mean ± SD / T(1stC < LOQ), first timepoint at which the plasma concentration was below the limit of quantification, Mean ± SD / Plasma concentration of 4-hydroxy tamoxifen, Range / AUC0-24, Mean ± SD / Cav = AUC0-24/24, Mean ± SD / Cmax, Mean ± SD / t1/2, Range / tmax, Mean ± SD: gel 57 mg/100 g; for T(1stC < LOQ), first timepoint at which the plasma concentration was below the limit of quantification, Mean ± SD: after last administration; for AUC0-24, Mean ± SD / Cav = AUC0-24/24, Mean ± SD / Cmax, Mean ± SD / t1/2, Range / tmax, Mean ± SD: last administration, day 25 of second cycle
Protocol: At the end of a menstrual cycle, each patient received a single dose, after which serial blood samples were collected at 0, 0.5, 1, 1.5, 2, 3, 4, 6, 12, 18, 24, 36, 48, and 72 hours.

[2] = tolerance of 4-hydroxy tamoxifen gel in healthy premenopausal women (Example 3)
Protocol: Each participant applied the gel daily for the duration of two menstrual cycles.
On the first day of the following menstruation, treatment, which consisted of daily application of the gel over two menstrual cycles, began. Blood samples were collected 24 hours following the morning application of gel on days 7, 20 and 25 of the first and second cycles. On the last day of administration, day 25 of the second menstrual cycle, serial blood samples were collected prior to application and at 0.5, 1, 1.5, 2, 3, 4, 6, 12, 18, 24, 36, 48, and 72 hours after application of the gel.

[3] = in vivo; cited from earlier work
[4] = biological target: T1, estrone sulphatase (Homo sapiens, UniProt P08842); details: mammary cancer cell lines; cited from earlier work
T1 construct: estrone sulphatase activity in mammary cancer cell lines; endogenous in cells
T1 sequence (P08842 22-583): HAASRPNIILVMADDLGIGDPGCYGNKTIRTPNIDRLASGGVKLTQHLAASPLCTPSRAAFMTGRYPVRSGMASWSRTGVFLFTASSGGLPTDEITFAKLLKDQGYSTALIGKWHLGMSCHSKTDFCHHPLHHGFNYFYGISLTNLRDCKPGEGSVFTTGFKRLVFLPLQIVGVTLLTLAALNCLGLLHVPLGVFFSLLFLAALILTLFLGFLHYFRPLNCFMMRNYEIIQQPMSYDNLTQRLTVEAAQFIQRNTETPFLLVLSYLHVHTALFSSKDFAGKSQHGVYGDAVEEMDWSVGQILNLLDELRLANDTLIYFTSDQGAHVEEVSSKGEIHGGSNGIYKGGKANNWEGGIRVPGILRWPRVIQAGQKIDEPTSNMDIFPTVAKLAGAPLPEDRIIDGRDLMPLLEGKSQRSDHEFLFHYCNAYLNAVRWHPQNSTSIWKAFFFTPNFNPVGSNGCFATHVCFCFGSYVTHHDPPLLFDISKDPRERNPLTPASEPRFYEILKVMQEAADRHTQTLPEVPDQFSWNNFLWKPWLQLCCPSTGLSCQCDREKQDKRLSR

CCC(=C(c1ccc(O)cc1)c1ccc(OCCN(C)C)cc1)c1ccccc1 [4-hydroxy tamoxifen, 1-[4-(2-N-dimethylaminoethoxy)phenyl]-1-(4-hydroxyphenyl)-2-phenylbut-1-ene]
Plasma concentration of 4-hydroxy tamoxifen, Mean ± SD ([1]; 1 mg/day, Second cycle Day 25, 0 hr (24 hours after Day 24 application, prior to final application)): 0.0272 ± 0.0208 ng/mL | Plasma concentration of 4-hydroxy tamoxifen, Mean ± SD ([1]; 1 mg/day, Second cycle Day 25, 0.5 hr after application): 0.0259 ± 0.0187 ng/mL | Plasma concentration of 4-hydroxy tamoxifen, Mean ± SD ([1]; 1 mg/day, Second cycle Day 25, 1 hr after application): 0.0287 ± 0.0195 ng/mL | Plasma concentration of 4-hydroxy tamoxifen, Mean ± SD ([1]; 1 mg/day, Second cycle Day 25, 1.5 hr after application): 0.0256 ± 0.0178 ng/mL | Plasma concentration of 4-hydroxy tamoxifen, Mean ± SD ([1]; 1 mg/day, Second cycle Day 25, 2 hr after application): 0.0251 ± 0.018 ng/mL | Plasma concentration of 4-hydroxy tamoxifen, Mean ± SD ([1]; 1 mg/day, Second cycle Day 25, 3 hr after application): 0.0248 ± 0.0205 ng/mL | Plasma concentration of 4-hydroxy tamoxifen, Mean ± SD ([1]; 1 mg/day, Second cycle Day 25, 4 hr after application): 0.0268 ± 0.0233 ng/mL | Plasma concentration of 4-hydroxy tamoxifen, Mean ± SD ([1]; 1 mg/day, Second cycle Day 25, 6 hr after application): 0.025 ± 0.0182 ng/mL | Plasma concentration of 4-hydroxy tamoxifen, Mean ± SD ([1]; 1 mg/day, Second cycle Day 25, 12 hr after application): 0.0283 ± 0.0229 ng/mL | Plasma concentration of 4-hydroxy tamoxifen, Mean ± SD ([1]; 1 mg/day, Second cycle Day 25, 18 hr after application): 0.0234 ± 0.0174 ng/mL | Plasma concentration of 4-hydroxy tamoxifen, Mean ± SD ([1]; 1 mg/day, Second cycle Day 26, 24 hr after last application): 0.026 ± 0.0196 ng/mL | Plasma concentration of 4-hydroxy tamoxifen, Mean ± SD ([1]; 1 mg/day, Second cycle Day 26, 36 hr after last application): 0.0257 ± 0.0184 ng/mL | Plasma concentration of 4-hydroxy tamoxifen, Mean ± SD ([1]; 1 mg/day, Second cycle Day 27, 48 hr after last application): 0.022 ± 0.016 ng/mL | Plasma concentration of 4-hydroxy tamoxifen, Mean ± SD ([1]; 1 mg/day, Second cycle Day 28, 72 hr after last application): 0.0189 ± 0.0124 ng/mL | T(1stC < LOQ), first timepoint at which the plasma concentration was below the limit of quantification, Mean ± SD ([1]; 1 mg/day): 236 ± 72 h | Plasma concentration of 4-hydroxy tamoxifen, Mean ± SD ([1]; 1 mg/day, after the second cycle, +5 days): 0.0114 ± 0.0082 ng/mL | Plasma concentration of 4-hydroxy tamoxifen, Range ([1]; 1 mg/day, after the second cycle, +8 days): (0-14.8) pg/mL | AUC0-24, Mean ± SD ([1]; 1 mg/day): 0.619 ± 0.466 ng·h/mL | Cav = AUC0-24/24, Mean ± SD ([1]; 1 mg/day): 0.0258 ± 0.0194 ng/mL | Cmax, Mean ± SD ([1]; 1 mg/day): 0.0351 ± 0.0224 ng/mL | t1/2, Range ([1]; 1 mg/day): (58-118) hr | tmax, Mean ± SD ([1]; 1 mg/day): 12.8 ± 14.9 h | Plasma concentration of 4-hydroxy tamoxifen, Range ([1]; 2 mg/day, First cycle Day 1, 0 hr): (0-0) pg/mL | Plasma concentration of 4-hydroxy tamoxifen, Mean ± SD ([1]; 2 mg/day, First cycle Day 7, 24 hr after application): 0.0269 ± 0.0182 ng/mL | Plasma concentration of 4-hydroxy tamoxifen, Mean ± SD ([1]; 2 mg/day, First cycle Day 20, 24 hr after application): 0.044 ± 0.0292 ng/mL | Plasma concentration of 4-hydroxy tamoxifen, Mean ± SD ([1]; 2 mg/day, First cycle Day 25, 24 hr after application): 0.0454 ± 0.031 ng/mL | Plasma concentration of 4-hydroxy tamoxifen, Mean ± SD ([1]; 2 mg/day, Second cycle Day 7, 24 hr after application): 0.0422 ± 0.0248 ng/mL | Plasma concentration of 4-hydroxy tamoxifen, Mean ± SD ([1]; 2 mg/day, Second cycle Day 20, 24 hr after application): 0.0389 ± 0.0271 ng/mL | Plasma concentration of 4-hydroxy tamoxifen, Mean ± SD ([1]; 2 mg/day, Second cycle Day 25, 0 hr (24 hours after Day 24 application, prior to final application)): 0.0432 ± 0.0277 ng/mL | Plasma concentration of 4-hydroxy tamoxifen, Mean ± SD ([1]; 2 mg/day, Second cycle Day 25, 0.5 hr after application): 0.0445 ± 0.0299 ng/mL | Plasma concentration of 4-hydroxy tamoxifen, Mean ± SD ([1]; 2 mg/day, Second cycle Day 25, 1 hr after application): 0.0405 ± 0.0251 ng/mL | Plasma concentration of 4-hydroxy tamoxifen, Mean ± SD ([1]; 2 mg/day, Second cycle Day 25, 1.5 hr after application): 0.0368 ± 0.0211 ng/mL | Plasma concentration of 4-hydroxy tamoxifen, Mean ± SD ([1]; 2 mg/day, Second cycle Day 25, 2 hr after application): 0.0368 ± 0.0216 ng/mL | Plasma concentration of 4-hydroxy tamoxifen, Mean ± SD ([1]; 2 mg/day, Second cycle Day 25, 3 hr after application): 0.0361 ± 0.0206 ng/mL | Plasma concentration of 4-hydroxy tamoxifen, Mean ± SD ([1]; 2 mg/day, Second cycle Day 25, 4 hr after application): 0.0381 ± 0.0212 ng/mL | Plasma concentration of 4-hydroxy tamoxifen, Mean ± SD ([1]; 2 mg/day, Second cycle Day 25, 6 hr after application): 0.041 ± 0.0291 ng/mL | Plasma concentration of 4-hydroxy tamoxifen, Mean ± SD ([1]; 2 mg/day, Second cycle Day 25, 12 hr after application): 0.0451 ± 0.0306 ng/mL | Plasma concentration of 4-hydroxy tamoxifen, Mean ± SD ([1]; 2 mg/day, Second cycle Day 25, 18 hr after application): 0.0398 ± 0.0255 ng/mL | Plasma concentration of 4-hydroxy tamoxifen, Mean ± SD ([1]; 2 mg/day, Second cycle Day 26, 24 hr after last application): 0.044 ± 0.033 ng/mL | Plasma concentration of 4-hydroxy tamoxifen, Mean ± SD ([1]; 2 mg/day, Second cycle Day 26, 36 hr after last application): 0.0421 ± 0.0315 ng/mL | Plasma concentration of 4-hydroxy tamoxifen, Mean ± SD ([1]; 2 mg/day, Second cycle Day 27, 48 hr after last application): 0.0381 ± 0.0253 ng/mL | Plasma concentration of 4-hydroxy tamoxifen, Mean ± SD ([1]; 2 mg/day, Second cycle Day 28, 72 hr after last application): 0.0332 ± 0.0222 ng/mL | T(1stC < LOQ), first timepoint at which the plasma concentration was below the limit of quantification, Mean ± SD ([1]; 2 mg/day): 326 ± 97 h | Plasma concentration of 4-hydroxy tamoxifen, Mean ± SD ([1]; 2 mg/day, after the second cycle, +5 days): 0.0204 ± 0.0173 ng/mL | Plasma concentration of 4-hydroxy tamoxifen, Mean ± SD ([1]; 2 mg/day, after the second cycle, +8 days): 0.0108 ± 0.0134 ng/mL | Plasma concentration of 4-hydroxy tamoxifen, Range ([1]; 2 mg/day, after the second cycle, +12 days): (0-30.4) pg/mL | AUC0-24, Mean ± SD ([1]; 2 mg/day): 0.998 ± 0.653 ng·h/mL | Cav = AUC0-24/24, Mean ± SD ([1]; 2 mg/day): 0.0416 ± 0.0272 ng/mL | Cmax, Mean ± SD ([1]; 2 mg/day): 0.0516 ± 0.0317 ng/mL | t1/2, Range ([1]; 2 mg/day): (49-101) hr | tmax, Mean ± SD ([1]; 2 mg/day): 11.8 ± 12.3 h | plasma concentrations after the last gel application ([1]; 72 hours after the last gel application): remained detectable | plasma concentrations of 4-hydroxy tamoxifen after a single dose ([1]; single 0.5 mg dose): did not produce detectable plasma concentrations | patients with detectable plasma concentrations (>5 pg/mL) ([1]; single dose of 1 mg): 6 of 12 | plasma concentrations of 4-hydroxy tamoxifen compared with typical estradiol concentrations ([1]; topical application, 0.5-2 mg/day): < 0.08 ng/mL | patients who developed an allergic reaction to the gel ([2]; 36 patients): One | patients who reported facial acne ([2]; 36 patients, 5 had a past history of acne): 10 | biological tolerance ([2]; all 36 patients, daily gel over two menstrual cycles): excellent | effect on FSH, LH, estradiol, or progesterone hormone levels ([2]; during the menstrual cycles): did not affect | echographic examination of the ovaries ([2]; end of treatment, all patients): normal in all patients | laboratory or clinical evidence of systemic effects ([2]; topical application): no detectable laboratory or clinical evidence of systemic effects | breast tissue concentration by site of application [3]: concentrated at higher amounts in breast tissue when the gel was applied directly to the breasts | inhibitory effect on estrone sulphatase activity [4]: significant inhibitory effect
